The structures appear in SMILES notation. Converted amounts (≈) assume the structure as drawn.

For test [1], the system named is Klebsiella pneumoniae 272. As to the kind of experiment: Serial dilution test in the microtiter system (MIC), Klebs. pneum. 272. To be noted: Table IV, Klebs. pneum. 272, 37° C., 18-20 hours, read-out: MIC. The class given is cell-based. The method, then:
(§1) These tests were performed according to the method of the serial dilution test in the microtiter system. The effect of the substances on bacteriostasis was examined in a fluid medium. […] A nutrient medium of the following composition was used. 10 gm of peptone, 8 gm of meat extract-oxoid, 3 gm of sodium chloride, 2 gm of sec. sodium phosphate were diluted with distilled water to […] (pH 7.2-7.4). Only in the test against streptococci 1% of glucose was added. The age of the primary cultures was about 20 hours. The standardization of the pathogen suspension was effected by using a photometer according to "Eppendorf" (test tube dismeter 14 mm, filter 546 nm) with the aid of the turbidity of a comparison suspension consisting of barium sulfate, this suspension being prepared by addition of 3.0 ml of 1% barium chloride solution to 97 ml of 1% sulfuric acid. After the standardization, streptococcus aronson were further diluted to a concentration of 1:15 and the other microorganisms to a concentration of 1:1500 by means of a sodium chloride solution.
(§2) 16 mg of the test substance were put into a 10 ml-measuring flask and filled up to the mark with the solvent. The further dilution series was standardized with distilled water or the respective solvent.
(§3) The cavities of the microtiter plates were filled with 0.2 ml of nutrient medium. Then, 0.01 ml of the corresponding test substance dilution was added and inoculated with 0.01 ml of the standardized suspension. The bacteria were incubated at 37° C. for 18-20 hours. Control tests merely using the solvent were carried out simultaneously.
(§4) The measurement was carried out macroscopically to determine the minimal inhibitory (threshold) concentration, i.e. the lower still bacteriostatically effective concentration.
(§5) Staphylococcus aureus SG 511, Escherichia coli ATCC 11 775, Pseudomonas aeruginosa Hamburgensis and Pseudomonas aeruginosa Walter, Serratia marcescens ATCC 13880, Klebsiella pneumoniae ATCC 10 031 and 272, Proteus mirabilis Hamburgensis, Proteus rettgeri, Enterbacter cloaceae ATCC 13 047 and E. Coli R+TEM (β-lactamase carrier).

Test [2] deals with Escherichia coli ATCC 11 775. Kind of test: Serial dilution test in the microtiter system (MIC), E. Coli ATCC 11775. The class given is cell-based. Particulars: Table IV, E. Coli ATCC 11775, 37° C., 18-20 hours, read-out: MIC. The method, then: as §1, §2, §3, §4, §5
The test system of test [3] is Enterbacter cloaceae ATCC 13 047. As to the kind of experiment: Serial dilution test in the microtiter system (MIC), Eb. cloaceae ATCC 13047. The class given is cell-based. To be noted: Table IV; Eb. cloaceae; 37° C., 18-20 hours; read-out: MIC. The method, then:
as §1, §2, §3, §4, §5

For test [4], the system named is Serratia marcescens ATCC 13880. Kind of test: Serial dilution test in the microtiter system (MIC), Serrat. marcesc. ATCC 13880. The class given is cell-based. To be noted: ATCC13880, Table IV, Serr. marcesc. ATCC 13880, 37° C., 18-20 hours, read-out: MIC. The method, then:
as §1, §2, §3, §4, §5

Test [5] relates to Proteus mirabilis Hamburgensis. As to the kind of experiment: Serial dilution test in the microtiter system (MIC), Prot. mirabilis. The class given is cell-based. Particulars: Table IV, Prot. mir. Hbg., 37° C., 18-20 hours, read-out: MIC. The method, then: as §1, §2, §3, §4, §5
Test [6] deals with Pseudomonas aeruginosa Walter. As to the kind of experiment: Serial dilution test in the microtiter system (MIC), Pseud. aerug. Walter. The class given is cell-based. The method, then:
as §1, §2, §3, §4, §5

Test [7] relates to Proteus rettgeri. As to the kind of experiment: Serial dilution test in the microtiter system (MIC), Prot. rettgeri. The class given is cell-based. Particulars: Providencia rettgeri; Table IV; Prot. rettg.; 37° C., 18-20 hours; read-out: MIC. The method, then: as §1, §2, §3, §4, §5
Test [8] has as its system E. coli ATCC 11775. As to the kind of experiment: In vivo activity in mice, E. coli infection. To be noted: Escherichia coli, ATCC11775, iPSC, sc, 168 h; E. coli infection i.p.; s.c. administration; per dose; observation 7 days; read-out: ED50 (dose at which 50% of the animals survived). Details: species or system Female NMRI mice. The method, then:
(§6) A number of compounds of this invention were tested in vivo in mice against experimental infections. Bacteria E. coli ATCC 11775 and Psuedomonas aeruginosa Walter were used as pathogens. An intraperitoneal infection with 0.2 ml of a 5% suspension of the bacteria was induced. This corresponds to about 2×10^6 E. Coli germs and 8×10^5 pseudomonas germs/mouse. […] The groups with E. coli infection were treated with the test compound three times on the first day (1, 4, and 7 hours post infectionem) and for two days thereafter twice a day. The groups with the pseudomonas infection were treated with the test compound 6 times on the first day (1, 3, 6, 9, 12 and 15 hours post infectionem) and for two days thereafter twice a day. The observation time was in both cases 7 days. The results of these tests with representatives of the penicillins and cephalosporins according to the invention are shown in the following table: […]

The test system of test [9] is Psuedomonas aeruginosa Walter. Kind of test: In vivo activity in mice, Pseudomonas infection. Details: species or system Female NMRI mice. To be noted: Mus musculus, iPSC, sc, 168 h; Pseudomonas infection i.p.; s.c. administration; per dose; observation 7 days; read-out: ED50 (dose at which 50% of the animals survived). As for the experimental part:
as §6

Test [10] concerns Klebsiella pneumoniae ATCC 10 031. As to the kind of experiment: Serial dilution test in the microtiter system (MIC), Klebs. pneum. ATCC 10031. The class given is cell-based. To be noted: Table IV, Klebs. pneum. ATCC 10031, 37° C., 18-20 hours, read-out: MIC. The method, then: as §1, §2, §3, §4, §5
Test [11] concerns Pseudomonas aeruginosa Hamburgensis. As to the kind of experiment: Serial dilution test in the microtiter system (MIC), Pseud. aerug. Hbg. The class given is cell-based. As for the experimental part:
as §1, §2, §3, §4, §5

The subject of test [12] is Staphylococcus aureus SG 511. Kind of test: Serial dilution test in the microtiter system (MIC), S. aureus SG 511. The class given is cell-based. To be noted: SG511, Table IV, S. aureus SG 511, 37° C., 18-20 hours, read-out: MIC. As for the experimental part:
as §1, §2, §3, §4, §5

With `Cn1nnnc1SCC1=C(C(=O)O)N2C(=O)[C@@H](NC(=O)[C@H](NC(=O)Nc3cnc(NCc4ccco4)nc3O)c3ccc(O)cc3)[C@H]2SC1` [J], the minimum inhibitory concentration (MIC) amounted to 0.5 µg/mL (≈ 0.704 µM) in test [1]; 0.25 µg/mL (≈ 0.352 µM) in [2]; 0.5 µg/mL (≈ 0.704 µM) in test [3]; 0.25 µg/mL (≈ 0.352 µM) in [4]; 0.12 µg/mL (≈ 0.169 µM) in test [5]; 4 µg/mL (≈ 5.64 µM) in test [6]. In addition, the minimum inhibitory concentration (MIC) in test [7] turned out to be 0.5 µg/mL (≈ 0.704 µM); in test [10], 0.5 µg/mL (≈ 0.704 µM); in test [11] it was 8 µg/mL (≈ 11.3 µM); in test [12] it was 0.5 µg/mL (≈ 0.704 µM). Moreover, the figures for the ED50 in [8] and in test [9] were 0.3 mg/kg and 6.3 mg/kg, respectively.

By MIC is commonly meant the lowest concentration found to suppress growth. Usually ED50 stands for the midpoint of the dose-response relation.

Source of the values: patent US4415566A, “Cephalosporin derivatives” (Boehringer Ingelheim GmbH, priority 1979, dated 1983).
